The data set has as its target T1, CYP2C9 (Homo sapiens, UniProt P11712).
T1 construct: V5-His (vector-encoded) (C); expressed in transfected cells
Put plainly: Metabolism in transgenic HEK293 cells expressing CYP2C9. The format is in vitro ADME. Particulars: HEK293CYP2C9; 10 µM substrate, 24 h. As to the method: For the generation of transgenic cell lines, we used semi-adherent HEK293 cells (DSMZ, ACC305, human embryonic kidney cells) which were cultured on a daily basis in DMEM medium supplemented with 10% (FCS) and 1% penicillin/streptomycin. In a first step CYP1A2, CYP2C8, CYP2C9, CYP3A4, CYP2A6, and CYP2E1 cDNA were cloned into the plasmid pcDNATM3.1/V5-His TOPO® using human liver RNA as a template and using the following primers: CYP1A2 for5′-[…]-3′, CYP1A2 rev 5′-[…]-3′; CYP2C8 for 5′-[…]-3′, CYP2C8 rev 5′-[…]-3′; CYP2C9 for 5′-[…]-3′, CYP2C9 rev 5′-[…]-3′; CYP3A4 for 5′-[…]-3′, CYP3A4 rev 5′-[…]-3′, CYP2A6 for 5′-[…]-3′, CYP2A6 rev 5′-[…]-3′; CYP2E1 for 5′-[…]-3′, CYP2E1 rev 5′-[…]-3′. Final constructs were verified with Sanger DNA sequencing and restriction digestion. For transfection, 3 × 10^6 HEK293 cells were pre-incubated in a 10 cm dish in DMEM medium with 10% FCS, but without antibiotics, for 18 to 24 h. When the cells reached approximately 70% confluency, they were transfected using TransIT-LT1 transfection reagent (Biozol, Eiching, Germany). […]
HEK293 cells overexpressing the respective CYP enzymes were seeded onto 6-well plates and were treated with or without 10 µM of the respective probe drug in DMEM medium for 24 hours at 37 °C and 5 % CO2. […] Analytes were measured by LC-MS/MS either in methanol cell lysates or in DMEM supernatant. […]

This note sets out measurements from paper PMC11489226 (Archives of Toxicology, 2024).

T1 sequence (P11712 whole entry): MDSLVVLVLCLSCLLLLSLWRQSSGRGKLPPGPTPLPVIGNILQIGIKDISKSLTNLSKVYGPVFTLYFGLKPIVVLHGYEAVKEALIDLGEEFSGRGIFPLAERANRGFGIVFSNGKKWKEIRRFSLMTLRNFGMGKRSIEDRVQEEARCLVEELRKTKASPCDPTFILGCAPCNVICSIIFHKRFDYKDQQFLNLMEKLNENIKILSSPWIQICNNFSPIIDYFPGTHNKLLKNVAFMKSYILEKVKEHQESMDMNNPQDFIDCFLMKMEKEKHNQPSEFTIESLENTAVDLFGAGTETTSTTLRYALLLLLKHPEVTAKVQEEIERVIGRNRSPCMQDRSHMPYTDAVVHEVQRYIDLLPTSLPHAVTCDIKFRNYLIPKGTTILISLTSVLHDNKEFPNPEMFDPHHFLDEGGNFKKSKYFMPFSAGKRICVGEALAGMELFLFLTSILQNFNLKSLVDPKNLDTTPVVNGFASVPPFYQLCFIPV

With `Cc1cccc(Nc2ccncc2S(=O)(=O)NC(=O)NC(C)C)c1` [Torasemide], the Conversion product entry is on record as “Hydroxy torasemide”.
